Data reported in paper PMC10997755, “Discovery of a small-molecule inhibitor that traps Polθ on DNA and synergizes with PARP inhibitors” (Nature Communications, 2024).
Where “and” joins values, the source holds several entries; their conditions need not be identical. Equal values may be shown once. Entries after “also recorded” stand apart in the source; their conditions may differ.

Tests used:
Polθ-pol = target: T1, Polθ-pol (Homo sapiens, UniProt O75417); assay: Cy5 fluorescence Polθ-pol DNA synthesis (strand displacement) IC50 assay; assay type: biochemical; conditions: 5 nM PolQ, 18 min
T1 construct: purified recombinant human Polθ-pol (comprising amino acid residues 1792–2590); made in house
T1 sequence (O75417 1792-2590): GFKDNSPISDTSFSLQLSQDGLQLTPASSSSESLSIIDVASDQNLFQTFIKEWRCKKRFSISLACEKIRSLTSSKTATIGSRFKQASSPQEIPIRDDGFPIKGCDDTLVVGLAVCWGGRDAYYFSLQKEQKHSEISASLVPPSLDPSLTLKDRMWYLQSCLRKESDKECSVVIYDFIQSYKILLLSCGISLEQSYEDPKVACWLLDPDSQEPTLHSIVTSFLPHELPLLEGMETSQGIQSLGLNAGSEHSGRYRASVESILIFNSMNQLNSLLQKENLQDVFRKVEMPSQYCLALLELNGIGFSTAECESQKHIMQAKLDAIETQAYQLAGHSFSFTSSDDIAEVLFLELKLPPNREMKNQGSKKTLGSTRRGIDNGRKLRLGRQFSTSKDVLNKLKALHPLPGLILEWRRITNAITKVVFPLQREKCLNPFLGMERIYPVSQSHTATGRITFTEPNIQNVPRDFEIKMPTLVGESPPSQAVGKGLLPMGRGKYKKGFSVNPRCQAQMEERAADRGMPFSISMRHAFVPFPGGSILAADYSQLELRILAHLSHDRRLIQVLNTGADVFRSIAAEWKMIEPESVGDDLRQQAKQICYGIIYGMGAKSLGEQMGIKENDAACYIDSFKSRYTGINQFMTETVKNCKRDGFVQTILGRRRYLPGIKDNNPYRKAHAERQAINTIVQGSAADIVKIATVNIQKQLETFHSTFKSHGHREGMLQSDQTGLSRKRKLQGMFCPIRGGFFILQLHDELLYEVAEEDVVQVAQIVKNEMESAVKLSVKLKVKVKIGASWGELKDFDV
Procedure: The following Cy5 fluorescence assay was used to measure the ability of compounds to inhibit Polθ-pol in vitro. The fluorescent based assay was performed as follows: 60 nM of the pre-annealed primer-template containing a 5’ Cy5 fluorophore conjugated template strand (RP486-Cy5), a downstream complementary oligo conjugated with a 3’ Iowa BlackReg Dark quencher (RP343BHQRQ) and a primer strand (RP469D) was mixed with 50 uM 2'-deoxyribonucleoside triphosphates (dNTPs), 0.1 mg/mL Bovine serum albumin (BSA), 0.01% NP-40, 10% glycerol, 1 mM dithiothreitol (DTT), 10 mM MgCl2, 25 mM TrisHCl pH 7.8 in the presence of 2.5% DMSO with or without various concentrations (7-point dilution series) of Polθ-pol small-molecule inhibitors at 37 °C in a volume of 40 μL. The reactions were initiated by the addition of 5 nM of purified recombinant human Polθ-pol (comprising amino acid residues 1792–2590). The reactions were terminated by the addition of 20 mM EDTA after 18 min, and the Cy5 fluorescence intensity was measured using a CLARIOstar (BMG Labtech) plate reader. Reactions were performed in triplicate and the % inhibition at each concentration of the respective compound of Formula I was based on the mean.

DLD1 Parental cells = assay: Clonogenic assay; assay type: cell-based; conditions: Olaparib 1 μM, BRCA2-WT
Procedure: (§1) Cells were plated on six or twelve or twenty-four well plates. In six well plate, 1000 cells/ well of BRCA2 -/-, BRCA1 -/-, PALB2 mut and 500 cells/ well of wildtype pair was plated; In twelve well plate, 600 cells/ well of BRCA2 -/-, BRCA1 -/-, PALB2 mut and 400 cells/ well of wildtype pair was plated; In twenty-four well plate, 500 cells/ well of BRCA2 -/-, BRCA1 -/-, PALB2 mut and 300 cells/ well of wildtype pair was plated. For MEFs, 300 cells per well in six-well plate were seeded. The medium was replaced every 2 days until the colonies were ready for staining in 10–12 days. For staining: Medium was removed from plates, and cells were rinsed with PBS. Fixation was carried out with—Water: Ethanol: Acetic acid (5:4:1) for 30 min followed by staining of colonies with 0.5% crystal violet in Water: Ethanol (3:2) for 2 h at room temperature. The plates were rinsed with water and left for drying overnight at room temperature. Colonies were then counted and IC50 was calculated using results from 3 or more independent experiments. Response curves are shown as mean colony formation +/- S.E.M.

DLD1 BRCA2 -/- cells = assay: Clonogenic assay; assay type: cell-based; conditions: for average / percent suvival / replicate counts: vehicle, DLD1-BRCA2 null cells
Procedure: as §1
(§2) Data are expressed as mean ± SEM from at least 3 independent experiments with triplicates for each condition unless stated otherwise. When conducting comparison between two groups, two-tailed unpaired t-test was used. Significance was assumed at p < 0.05. Asterisks in the figures indicate significance, ^∗p < 0.05, ^∗∗p < 0.01, ^∗∗∗p < 0.001. Combenefit® software version 2.021 was used to perform synergy analyses for drug combinations between RTx-161 and PARPi. GraphPad Prism 9 software was used to calculate IC50.

MDA-MB-231 cells = assay: Clonogenic assay; assay type: cell-based; conditions: Fig. 2f, vehicle (Rtx-161 zero)
Procedure: as §1, §2

[1] = Clonogenic assay, OLA with or without RTX-161 (Fig. 2 a; cell line not given); assay type: cell-based; conditions: vehicle, single experiments

ART-558
raw signal, Trial 1-3 (Polθ-pol; 0.0016 μM compound, 60 nM 469D/343-BHQRQ/486-Cy5 DNA): 191.03 and 186.60 and 188.77 | % Activity, Average (Polθ-pol; 0.0016 μM compound, 60 nM DNA): 85.90% | % Activity, Trial 1-3 (Polθ-pol; 0.0016 μM compound, 60 nM DNA): 80.91% and 85.80% and 91.00% | % Inhibition, Average (Polθ-pol; 0.0016 μM compound, 60 nM DNA): 14.10% | raw signal, Average (Polθ-pol; 0.0016 μM compound, 60 nM DNA): 188.80 | % Activity, Average (Polθ-pol; 0.0049 μM compound, 60 nM DNA): 70.18% | % Activity, Trial 1-3 (Polθ-pol; 0.0049 μM compound, 60 nM DNA): 67.33% and 75.35% and 67.85% | % Inhibition, Average (Polθ-pol; 0.0049 μM compound, 60 nM DNA): 29.82% | % Inhibition, Trial 1-3 (Polθ-pol; 0.0049 μM compound, 60 nM DNA): 32.67% and 24.65% and 32.15% | raw signal, Average (Polθ-pol; 0.0049 μM compound, 60 nM DNA): 168.11 | raw signal, Trial 1-3 (Polθ-pol; 0.0049 μM compound, 60 nM DNA): 171.92 and 173.21 and 159.20 | % Activity, Average (Polθ-pol; 0.0148 μM compound, 60 nM DNA): 44.31% | % Activity, Trial 1-3 (Polθ-pol; 0.0148 μM compound, 60 nM DNA): 42.11% and 41.00% and 49.82% | % Inhibition, Average (Polθ-pol; 0.0148 μM compound, 60 nM DNA): 55.69% | % Inhibition, Trial 1-3 (Polθ-pol; 0.0148 μM compound, 60 nM DNA): 57.89% and 59.00% and 50.18% | raw signal, Average (Polθ-pol; 0.0148 μM compound, 60 nM DNA): 133.93 | raw signal, Trial 1-3 (Polθ-pol; 0.0148 μM compound, 60 nM DNA): 136.44 and 129.18 and 136.16 | % Activity, Average (Polθ-pol; 0.0444 μM compound, 60 nM DNA): 20.55% | % Activity, Trial 1-3 (Polθ-pol; 0.0444 μM compound, 60 nM DNA): 21.44% and 16.79% and 23.44% | % Inhibition, Average (Polθ-pol; 0.0444 μM compound, 60 nM DNA): 79.45% | % Inhibition, Trial 1-3 (Polθ-pol; 0.0444 μM compound, 60 nM DNA): 78.56% and 83.21% and 76.56% | raw signal, Average (Polθ-pol; 0.0444 μM compound, 60 nM DNA): 102.66 | raw signal, Trial 1-3 (Polθ-pol; 0.0444 μM compound, 60 nM DNA): 107.36 and 98.15 and 102.46 | % Activity, Average (Polθ-pol; 0.1333 μM compound, 60 nM DNA): 6.69% | % Activity, Trial 1-3 (Polθ-pol; 0.1333 μM compound, 60 nM DNA): 5.64% and 7.63% and 6.80% | % Inhibition, Average (Polθ-pol; 0.1333 μM compound, 60 nM DNA): 93.31% | % Inhibition, Trial 1-3 (Polθ-pol; 0.1333 μM compound, 60 nM DNA): 94.36% and 92.37% and 93.20% | raw signal, Average (Polθ-pol; 0.1333 μM compound, 60 nM DNA): 84.25 | raw signal, Trial 1-3 (Polθ-pol; 0.1333 μM compound, 60 nM DNA): 85.13 and 86.41 and 81.22 | % Activity, Average (Polθ-pol; 0.4000 μM compound, 60 nM DNA): 2.48% | % Activity, Trial 1-3 (Polθ-pol; 0.4000 μM compound, 60 nM DNA): 0.51% and 1.19% and 5.76% | % Inhibition, Average (Polθ-pol; 0.4000 μM compound, 60 nM DNA): 97.52% | % Inhibition, Trial 1-3 (Polθ-pol; 0.4000 μM compound, 60 nM DNA): 99.49% and 98.81% and 94.24% | raw signal, Average (Polθ-pol; 0.4000 μM compound, 60 nM DNA): 78.65 | raw signal, Trial 1-3 (Polθ-pol; 0.4000 μM compound, 60 nM DNA): 77.91 and 78.16 and 79.89

O=C(c1cc(Cc2n[nH]c(=O)c3ccccc23)ccc1F)N1CCN(C(=O)C2CC2)CC1 [Olaparib, reference compound]
Average (colonies) (DLD1 Parental cells): 102.667 | Percent survival (DLD1 Parental cells): 99.6764 | Average (colonies) (DLD1 BRCA2 -/- cells; Olaparib 1 μM, BRCA2-NULL): 0 | Percent survival (DLD1 BRCA2 -/- cells; Olaparib 1 μM, BRCA2-NULL): 0 | selective killing / synthetic lethality in BRCA2-null DLD1 cells (DLD1 BRCA2 -/- cells; colony survival, versus BRCA2-WT): selective killing; also recorded: induction of synthetic lethality

Cn1ncnc1[C@H]1c2n[nH]c(=O)c3cc(F)cc(c23)N[C@@H]1c1ccc(F)cc1 [Talazoparib]
percent suvival (MDA-MB-231 cells; Talazoparib 12.5 nano M, experiment block 1 (c0-c7)): 83.7456% | percent suvival (MDA-MB-231 cells; Talazoparib 12.5 nano M, experiment block 2 (c8-c15)): 90.5063% | percent suvival (MDA-MB-231 cells; Talazoparib 12.5 nano M, experiment block 3 (c16-c23)): 79.3478% | percent suvival (MDA-MB-231 cells; Talazoparib 25 nano M, experiment block 1 (c0-c7)): 72.4382% | percent suvival (MDA-MB-231 cells; Talazoparib 25 nano M, experiment block 2 (c8-c15)): 53.1646% | percent suvival (MDA-MB-231 cells; Talazoparib 25 nano M, experiment block 3 (c16-c23)): 57.0652% | percent suvival (MDA-MB-231 cells; Talazoparib 50 nano M, experiment block 1 (c0-c7)): 24.735% | percent suvival (MDA-MB-231 cells; Talazoparib 50 nano M, experiment block 2 (c8-c15)): 34.1772% | percent suvival (MDA-MB-231 cells; Talazoparib 50 nano M, experiment block 3 (c16-c23)): 30.9783%

O=C(c1cc(Cc2n[nH]c(=O)c3ccccc23)ccc1F)N1CCN(C(=O)C2CC2)CC1 [OLA]
percent suvival ([1]; OLA 0.125 nano M): 98.3333% | percent suvival ([1]; OLA 0.25 nano M): 90.8333% and 74.269% and 96.7105% | percent suvival ([1]; OLA 0.5 nano M): 67.8363% and 93.4211% and 71.6667% | percent suvival ([1]; OLA 1 nano M): 43.3333% and 47.9532% and 73.6842% | percent suvival ([1]; OLA 2 nano M): 35% and 27.4854% and 32.2368% | percent suvival ([1]; OLA 4 nano M): 17.5% and 9.357% and 9.868% | average (DLD1 BRCA2 -/- cells; OLA 3.125 nano M): 100 | percent suvival (DLD1 BRCA2 -/- cells; OLA 3.125 nano M): 96.463% | replicate counts (DLD1 BRCA2 -/- cells; OLA 3.125 nano M): 99 and 93 and 108 | average (DLD1 BRCA2 -/- cells; OLA 6.25 nano M): 86 | percent suvival (DLD1 BRCA2 -/- cells; OLA 6.25 nano M): 82.9582% | replicate counts (DLD1 BRCA2 -/- cells; OLA 6.25 nano M): 84 and 95 and 79 | average (DLD1 BRCA2 -/- cells; OLA 12.50 nano M): 68.3333 | percent suvival (DLD1 BRCA2 -/- cells; OLA 12.50 nano M): 65.9164% | replicate counts (DLD1 BRCA2 -/- cells; OLA 12.50 nano M): 64 and 72 and 69 | average (DLD1 BRCA2 -/- cells; OLA 25.00 nano M): 45.6667 | percent suvival (DLD1 BRCA2 -/- cells; OLA 25.00 nano M): 44.0514% | replicate counts (DLD1 BRCA2 -/- cells; OLA 25.00 nano M): 49 and 40 and 48 | average (DLD1 BRCA2 -/- cells; OLA 50.00 nano M): 38 | percent suvival (DLD1 BRCA2 -/- cells; OLA 50.00 nano M): 36.6559% | replicate counts (DLD1 BRCA2 -/- cells; OLA 50.00 nano M): 37 and 42 and 35 | average (DLD1 BRCA2 -/- cells; OLA 100.00 nano M): 20.3333 | percent suvival (DLD1 BRCA2 -/- cells; OLA 100.00 nano M): 19.6141% | replicate counts (DLD1 BRCA2 -/- cells; OLA 100.00 nano M): 24 and 18 and 19
